We go through two molecules from ChEMBL document CHEMBL1129021, “Synthesis and biological evaluation of the L-enantiomer of 2-deoxy-5-ethyl-4-thiouridine” (Bioorg Med Chem Lett, 1996).

Common to all, as to format: functional, organism-based
The test system of experiment [1] is Human betaherpesvirus 5. Put plainly: Compound was evaluated for the antiviral activity against human cytomegalo virus(HCMV).
The subject of experiment [2] is Human alphaherpesvirus 3. Put plainly: Compound was evaluated for the antiviral activity against varicella zoster virus(VZV).
Experiment [3] relates to Human immunodeficiency virus 1. Put plainly: Compound was evaluated for the antiviral activity against human immunodeficiency virus-1(HIV-1).
Experiment [4] has as its system Human alphaherpesvirus 2. Put plainly: Compound was evaluated for the antiviral activity against herpes simplex virus-2(HSV-2).

Some results are limits rather than exact numbers.

The IC50 is the concentration needed to halve the response being measured. Lower therefore signals greater potency. As to `CCc1cn([C@@H]2C[C@@H](O)[C@H](CO)S2)c(=O)[nH]c1=O`, the half-maximal inhibitory concentration (IC50) is over 100 µM in experiment [1], over 40 µM in experiment [2], over 50 µM in experiment [3] and over 50 µM in experiment [4].

Take `CCc1cn([C@H]2C[C@H](O)[C@@H](CO)S2)c(=O)[nH]c1=O`: the IC50 is over 100 µM in experiment [1], 0.76 µM in experiment [2], over 100 µM in experiment [3] and 2.3 µM in experiment [4].
